From article PMC7260336, “Identification of a species-specific aminotransferase in Pediococcus acidilactici capable of forming α-aminobutyrate” (AMB Express, 2020)

Columns and labels:
[1] = target: T1, Aat (recombinant His-tagged aminotransferase) (Pediococcus acidilactici, UniProt E0NE36); test: HPLC of amino acids formed; assay type: biochemical; settings: amino acceptor; leucine, AABA or alanine as amino donor, 50 uM pyridoxal 5-phosphate, pH 5.5, 37 °C, 1 h
T1 construct: gene aspC; full length, C-terminal His tag (pEXP5-CT/TOPO), E. coli BL21(DE3), Ni-TED purified; gene about 1200 bp; cloning primers translate to N-terminus MSDKVNA and native C-terminus LKAKRA; locus tag contradictory: primers designed for GBO44_RS03485 in Methods, GBO44_RS04865 in Results
T1 sequence (E0NE36 1-394): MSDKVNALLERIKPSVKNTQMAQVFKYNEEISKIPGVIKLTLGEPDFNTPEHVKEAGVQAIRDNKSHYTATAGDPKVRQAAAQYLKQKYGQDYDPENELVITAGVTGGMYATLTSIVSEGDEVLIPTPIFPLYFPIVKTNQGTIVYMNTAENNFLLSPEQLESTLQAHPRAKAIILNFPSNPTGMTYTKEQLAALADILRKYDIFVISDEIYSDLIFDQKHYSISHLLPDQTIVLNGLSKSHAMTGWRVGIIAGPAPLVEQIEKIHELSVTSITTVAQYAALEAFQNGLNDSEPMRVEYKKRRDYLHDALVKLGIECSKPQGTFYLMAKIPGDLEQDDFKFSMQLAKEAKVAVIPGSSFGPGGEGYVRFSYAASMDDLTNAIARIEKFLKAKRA

[2] = target: T1, Aat (recombinant His-tagged aminotransferase); test: coupled assay, glutamate formed measured with glutamate dehydrogenase/diaphorase; assay type: biochemical; settings: amino donor; 5 mM amino acid, 10 mM alpha-ketoglutarate, 50 uM pyridoxal 5-phosphate, pH 5.5, 37 °C

Compound | HPLC of amino acids formed [1] | coupled assay, glutamate formed measured with glutamate dehydrogenase/diaphorase [2]
CCC(=O)C(=O)O [AKB, α-ketobutyrate] | AKB, pyruvate, KMTB, KIC, and PPA significantly preferred amino group acceptors to AKG | 
CC(C)C[C@H](N)C(=O)O [Leu, L-leucine] |  | the enzyme transferred the amino group from leucine, methionine, AABA, alanine, cysteine, and phenylalanine
